Experimental data as given in publication PMC5522071, “Preclinical development of G1T38: A novel, potent and selective inhibitor of cyclin dependent kinases 4/6 for use as an oral antineoplastic in patients with CDK4/6 sensitive tumors” (Oncotarget, 2017).

Experiments:
[1] = target: T1, CDK1/Cyclin B1 (Homo sapiens, UniProt P06493); assay type: biochemical; settings: 12-point dose response, singlicate, at Km for ATP
T1 construct: purchased Nanosyn, Inc. (contract assay)

[2] = target: JAK2 (Homo sapiens, UniProt O60674); test: JAK2 inhibition; assay type: biochemical
[3] = in vivo; settings: po, 100 mg/kg
Description: To evaluate the murine PK/PD relationship of G1T38, an ER^+ MCF7 xenograft model was utilized. Compound concentrations were measured in plasma and tumors from tumor-bearing mice given a single oral dose of G1T38 (100 mg/kg). […] To assess the effects of G1T38 on pRB, tumors were harvested and pRB was analyzed by immunoblotting.

[4] = system: myeloid progenitors (Mac1+ Gr1+); test: EdU incorporation in bone marrow; settings: any treatment cohort (10, 50, 100 mg/kg), 7 days, 12 hours post-treatment
[5] = 28-day repeat-dose GLP toxicity study; assay type: in vivo; settings: dog
[6] = system: CDK4/6-independent cell lines; test: Cell proliferation, CellTiter-Glo, statement for the group; assay type: cell-based; settings: read-out: inhibition of proliferation in CDK4/6-independent cell lines
Description: To assess the capacity of G1T38 to inhibit proliferation of tumor cell lines, a broad panel of CDK4/6 dependent and independent lines was evaluated using CellTiter Glo (Table 2).
SupT1, Daudi, MCF7, ZR-75-1, A2058, WM2664, and H69 cells were seeded at 1000 cells per well; MV-4-11 and BV173 cells were plated at 4000 cells per well; Tom-1 cells were plated at 8,000 cells per well; NALM-1 cells were plated at 20,000 cells per well in Costar 3903 96 well plates. After 24 hours, plates were dosed with G1T38 at a nine-point dose concentration from 10 μM to 1 nM. Cell viability was determined after four or six days using the CellTiter-Glo® assay (Promega; Madison, WI) following manufacturer's recommendations. Plates were processed on BioTek (Winooski, VT) Synergy2 multi-mode plate reader and data analyzed using GraphPad (San Diego, CA) Prism 5 statistical software.

[7] = system: MMTV-Neu GEMM (Her2/Neu) tumors; test: Her2Neu breast cancer GEMM; assay type: in vivo, mice; settings: 100 mg/kg in diet, after 21 days of treatment
Description: After 21 days, tumor progression was calculated using the formula: (21 day volume – initial volume)/ initial volume x 100. […] Yellow bar represents duration of treatment. Statistics were completed using linear regression analysis of time during treatment (28 days). Error bars represent SEM. **p≤0.01.
Female MMTV-NEU mice (Jackson Labs Strain 002376) were used to test the efficacy of G1T38 (100 mpk, medicated diet). Drug was incorporated into diet by Research Diets (New Brunswick, NJ) using the following parameters; 25 gm mouse eating 3.2 gm of food/day. Mice were monitored for tumor development by palpating them weekly as per University of North Carolina at Chapel Hill Lineberger Mouse Phase 1 Unit (MP1U) protocol. At time of treatment, body composition was assessed and weight measurements (in grams) were recorded and used as a measure of gross toxicity. Mice were monitored until euthanized at predetermined humane endpoints per approved University of North Carolina at Chapel Hill IACUC protocols.

[8] = in vivo
Description: (§1) Supplementary Table 2: Elimination Half-Lives of G1T38
(§2) T1/2 (hrs) Mouse Rat Dog Human
(§3) Elimination half-lives (T1/2) were determined for G1T38 (in-house results and calculated as part of NCT02821624) and
(§4) In lower order species, mice and rats, values are similar between both compounds, however in dogs and […]

[9] = system: RNA polymerase II (RPB1) CTD (SER2) phosphorylation in HS68 cells; test: Western blot for Rpb1 CTD; assay type: cell-based; settings: immunoblot, 3-1000 nM, 24 hours
[10] = Elimination half-life; settings: in vivo
Description: as §1, §2, §3, §4

[11] = target: T2, CDK4/ CyclinD3 (Homo sapiens, UniProt P11802); test: KdELECT Kd determination (DiscoveRx); assay type: binding; settings: duplicate 11-point dose-response curves
T2 construct: purchased DiscoveRx (KdELECT service)
Description: (§5) G1T38 was profiled at DiscoveRx (Fremont, CA) using their KINOMEscan and scanMAX screening technology.
(§6) Supplementary Table 1: G1T38 Kinase Interactions
(§7) primary screen. Inhibitor binding constants (Kd values) were calculated from duplicate 11-point dose-response curves for
(§8) (1 picture or pasted object on this page, not shown here)

[12] = target: T3, SLK (Homo sapiens, UniProt Q9H2G2); test: KdELECT Kd determination (DiscoveRx); assay type: binding; settings: duplicate 11-point dose-response curves
T3 construct: purchased DiscoveRx (KdELECT service)
Description: as §5, §6, §7, §8

[13] = target: T4, PRKD3 (Homo sapiens, UniProt O94806); test: KdELECT Kd determination (DiscoveRx); assay type: binding; settings: duplicate 11-point dose-response curves
T4 construct: purchased DiscoveRx (KdELECT service)
Description: as §5, §6, §7, §8

[14] = target: T5, PRKD2 (Homo sapiens, UniProt Q9BZL6); test: KdELECT Kd determination (DiscoveRx); assay type: binding; settings: duplicate 11-point dose-response curves
T5 construct: purchased DiscoveRx (KdELECT service)
Description: as §5, §6, §7, §8

[15] = target: T6, NEK10 (Homo sapiens, UniProt Q6ZWH5); test: KdELECT Kd determination (DiscoveRx); assay type: binding; settings: duplicate 11-point dose-response curves
T6 construct: purchased DiscoveRx (KdELECT service)
Description: as §5, §6, §7, §8

[16] = target: T7, ULK2 (Homo sapiens, UniProt Q8IYT8); test: KdELECT Kd determination (DiscoveRx); assay type: binding; settings: duplicate 11-point dose-response curves
T7 construct: purchased DiscoveRx (KdELECT service)
Description: as §5, §6, §7, §8

[17] = target: T8, TTK (Homo sapiens, UniProt P33981); test: KdELECT Kd determination (DiscoveRx); assay type: binding; settings: duplicate 11-point dose-response curves
T8 construct: purchased DiscoveRx (KdELECT service)
Description: as §5, §6, §7, §8

[18] = target: T9, SNARK (Homo sapiens, UniProt Q9H093); test: KdELECT Kd determination (DiscoveRx); assay type: binding; settings: duplicate 11-point dose-response curves
T9 construct: purchased DiscoveRx (KdELECT service)
Description: as §5, §6, §7, §8

[19] = target: T10, CDK4/ CyclinD1 (Homo sapiens, UniProt P11802); test: KdELECT Kd determination (DiscoveRx); assay type: binding; settings: duplicate 11-point dose-response curves
T10 construct: purchased DiscoveRx (KdELECT service)
Description: as §5, §6, §7, §8

[20] = target: T11, FLT3 (D835V) (Homo sapiens, UniProt P36888, D835V); test: KdELECT Kd determination (DiscoveRx); assay type: binding; settings: duplicate 11-point dose-response curves
T11 construct: purchased DiscoveRx (KdELECT service)
Description: as §5, §6, §7, §8

T8 sequence (P33981 whole entry): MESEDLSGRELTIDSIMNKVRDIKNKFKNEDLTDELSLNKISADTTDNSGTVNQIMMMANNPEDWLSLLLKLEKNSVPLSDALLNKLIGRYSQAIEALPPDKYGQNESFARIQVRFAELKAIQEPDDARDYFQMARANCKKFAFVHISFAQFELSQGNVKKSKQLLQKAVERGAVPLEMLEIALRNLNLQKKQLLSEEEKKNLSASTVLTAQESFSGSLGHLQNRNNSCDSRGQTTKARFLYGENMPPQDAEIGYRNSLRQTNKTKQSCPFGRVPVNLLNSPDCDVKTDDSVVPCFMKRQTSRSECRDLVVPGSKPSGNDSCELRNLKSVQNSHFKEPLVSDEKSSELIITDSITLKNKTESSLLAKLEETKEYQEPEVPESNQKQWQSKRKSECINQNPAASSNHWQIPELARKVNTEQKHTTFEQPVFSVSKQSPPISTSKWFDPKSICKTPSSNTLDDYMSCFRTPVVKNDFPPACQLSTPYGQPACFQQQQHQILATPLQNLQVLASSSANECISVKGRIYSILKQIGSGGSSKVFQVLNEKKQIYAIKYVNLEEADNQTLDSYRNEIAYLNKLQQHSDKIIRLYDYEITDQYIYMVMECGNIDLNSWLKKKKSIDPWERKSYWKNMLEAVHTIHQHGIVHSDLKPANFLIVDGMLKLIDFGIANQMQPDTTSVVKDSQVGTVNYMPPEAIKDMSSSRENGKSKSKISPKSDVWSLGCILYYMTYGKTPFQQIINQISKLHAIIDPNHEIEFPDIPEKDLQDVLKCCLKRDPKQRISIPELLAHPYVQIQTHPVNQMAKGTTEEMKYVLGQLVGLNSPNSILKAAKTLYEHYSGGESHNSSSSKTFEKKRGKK
T3 sequence (Q9H2G2 whole entry): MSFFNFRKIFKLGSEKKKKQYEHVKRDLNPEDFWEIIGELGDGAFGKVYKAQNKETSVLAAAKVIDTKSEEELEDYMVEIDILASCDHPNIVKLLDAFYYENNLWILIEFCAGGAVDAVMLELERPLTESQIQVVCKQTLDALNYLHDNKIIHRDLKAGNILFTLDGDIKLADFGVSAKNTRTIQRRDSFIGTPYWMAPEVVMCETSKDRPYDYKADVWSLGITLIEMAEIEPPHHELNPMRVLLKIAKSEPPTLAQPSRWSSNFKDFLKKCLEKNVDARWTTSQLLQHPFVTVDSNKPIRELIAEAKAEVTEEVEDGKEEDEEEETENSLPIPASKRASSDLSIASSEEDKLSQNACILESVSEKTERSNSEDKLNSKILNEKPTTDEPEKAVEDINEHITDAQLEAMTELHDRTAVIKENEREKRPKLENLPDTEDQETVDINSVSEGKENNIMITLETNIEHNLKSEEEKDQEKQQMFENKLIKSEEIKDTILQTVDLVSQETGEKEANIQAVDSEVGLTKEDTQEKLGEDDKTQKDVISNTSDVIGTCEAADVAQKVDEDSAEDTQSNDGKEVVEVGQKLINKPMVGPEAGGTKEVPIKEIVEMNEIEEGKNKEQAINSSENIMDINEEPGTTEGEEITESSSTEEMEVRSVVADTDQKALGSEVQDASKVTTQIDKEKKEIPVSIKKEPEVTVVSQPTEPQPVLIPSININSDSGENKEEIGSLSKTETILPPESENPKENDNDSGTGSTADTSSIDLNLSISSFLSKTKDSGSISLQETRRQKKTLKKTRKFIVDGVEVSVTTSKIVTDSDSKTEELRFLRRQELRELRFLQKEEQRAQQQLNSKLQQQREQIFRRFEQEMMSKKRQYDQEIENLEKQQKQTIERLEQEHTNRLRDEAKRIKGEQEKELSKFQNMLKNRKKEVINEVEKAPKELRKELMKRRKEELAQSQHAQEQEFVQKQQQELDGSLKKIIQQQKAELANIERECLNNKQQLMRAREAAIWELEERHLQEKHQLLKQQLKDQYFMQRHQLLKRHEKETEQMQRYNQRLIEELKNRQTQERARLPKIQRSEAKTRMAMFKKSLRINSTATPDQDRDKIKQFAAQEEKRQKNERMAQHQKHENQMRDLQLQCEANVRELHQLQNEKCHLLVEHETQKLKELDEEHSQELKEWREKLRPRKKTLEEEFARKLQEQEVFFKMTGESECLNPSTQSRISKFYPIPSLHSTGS
T5 sequence (Q9BZL6 whole entry): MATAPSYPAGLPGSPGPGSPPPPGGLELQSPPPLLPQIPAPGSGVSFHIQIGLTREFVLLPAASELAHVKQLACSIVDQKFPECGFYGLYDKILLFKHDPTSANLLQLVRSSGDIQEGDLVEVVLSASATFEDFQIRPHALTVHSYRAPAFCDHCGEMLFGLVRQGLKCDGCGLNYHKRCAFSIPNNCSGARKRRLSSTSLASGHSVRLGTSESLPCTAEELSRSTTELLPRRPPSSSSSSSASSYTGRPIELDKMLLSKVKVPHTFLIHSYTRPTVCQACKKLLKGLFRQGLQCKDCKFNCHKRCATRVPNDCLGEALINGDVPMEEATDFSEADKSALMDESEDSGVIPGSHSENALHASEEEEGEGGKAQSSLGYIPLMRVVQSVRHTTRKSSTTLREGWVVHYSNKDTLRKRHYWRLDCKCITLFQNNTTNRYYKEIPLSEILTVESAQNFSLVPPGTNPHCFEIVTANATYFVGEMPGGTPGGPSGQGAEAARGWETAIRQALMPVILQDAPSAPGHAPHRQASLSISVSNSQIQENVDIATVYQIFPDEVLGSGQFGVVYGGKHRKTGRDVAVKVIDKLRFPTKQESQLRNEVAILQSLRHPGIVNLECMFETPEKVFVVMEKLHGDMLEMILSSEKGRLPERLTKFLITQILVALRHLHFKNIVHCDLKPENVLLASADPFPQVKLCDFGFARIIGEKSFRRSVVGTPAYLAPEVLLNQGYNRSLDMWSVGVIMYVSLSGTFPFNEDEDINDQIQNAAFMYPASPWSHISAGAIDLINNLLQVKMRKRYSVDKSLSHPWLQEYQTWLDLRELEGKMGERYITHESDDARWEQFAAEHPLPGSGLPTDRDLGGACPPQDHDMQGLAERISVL
T4 sequence (O94806 whole entry): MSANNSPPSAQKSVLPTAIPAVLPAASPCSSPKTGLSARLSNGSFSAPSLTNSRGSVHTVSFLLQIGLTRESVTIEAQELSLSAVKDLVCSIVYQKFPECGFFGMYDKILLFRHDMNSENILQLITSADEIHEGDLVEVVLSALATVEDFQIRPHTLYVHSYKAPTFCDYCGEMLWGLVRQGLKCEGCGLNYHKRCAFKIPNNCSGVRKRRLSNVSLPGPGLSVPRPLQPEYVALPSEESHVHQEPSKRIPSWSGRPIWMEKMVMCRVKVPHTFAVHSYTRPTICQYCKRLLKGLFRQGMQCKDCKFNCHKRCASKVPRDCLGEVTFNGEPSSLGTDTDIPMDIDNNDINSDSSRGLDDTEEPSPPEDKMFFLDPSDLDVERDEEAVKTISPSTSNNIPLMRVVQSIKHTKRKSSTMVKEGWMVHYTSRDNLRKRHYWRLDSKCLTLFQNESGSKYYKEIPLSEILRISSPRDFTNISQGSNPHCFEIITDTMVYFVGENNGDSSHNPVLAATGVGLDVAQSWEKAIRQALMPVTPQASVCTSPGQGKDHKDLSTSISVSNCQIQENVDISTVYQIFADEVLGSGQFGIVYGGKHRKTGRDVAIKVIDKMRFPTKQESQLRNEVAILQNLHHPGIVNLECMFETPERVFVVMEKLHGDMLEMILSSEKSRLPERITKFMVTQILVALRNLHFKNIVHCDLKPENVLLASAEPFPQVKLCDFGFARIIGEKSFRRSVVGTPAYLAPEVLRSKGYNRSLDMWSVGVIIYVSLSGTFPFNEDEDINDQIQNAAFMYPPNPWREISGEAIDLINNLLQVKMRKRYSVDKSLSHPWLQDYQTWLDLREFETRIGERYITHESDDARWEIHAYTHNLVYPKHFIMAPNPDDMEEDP
T9 sequence (Q9H093 whole entry): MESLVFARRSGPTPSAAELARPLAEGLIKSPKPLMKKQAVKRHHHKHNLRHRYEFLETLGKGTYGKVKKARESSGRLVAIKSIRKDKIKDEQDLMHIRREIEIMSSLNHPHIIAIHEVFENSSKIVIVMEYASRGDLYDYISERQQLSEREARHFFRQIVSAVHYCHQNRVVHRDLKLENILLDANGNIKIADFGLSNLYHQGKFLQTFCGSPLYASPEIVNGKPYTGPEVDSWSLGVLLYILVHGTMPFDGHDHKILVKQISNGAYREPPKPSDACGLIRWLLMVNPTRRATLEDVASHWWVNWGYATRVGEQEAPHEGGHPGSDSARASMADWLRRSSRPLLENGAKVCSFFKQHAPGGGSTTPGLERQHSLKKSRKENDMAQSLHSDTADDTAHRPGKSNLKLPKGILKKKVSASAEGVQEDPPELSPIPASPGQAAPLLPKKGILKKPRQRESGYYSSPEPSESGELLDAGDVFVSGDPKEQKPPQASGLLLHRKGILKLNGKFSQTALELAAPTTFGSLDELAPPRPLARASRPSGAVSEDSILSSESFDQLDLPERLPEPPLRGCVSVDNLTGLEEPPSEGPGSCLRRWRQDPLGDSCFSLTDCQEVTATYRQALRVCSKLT

Compound: CC(C)N1CCN(c2ccc(Nc3ncc4cc5n(c4n3)C3(CCCCC3)CNC5=O)nc2)CC1.Cl.Cl [G1T38, 2′-((5-(4-isopropylpiperazin-1-yl)pyridin-2-yl)amino)-7′, 8′dihydro-6′Hspiro[cyclohexane1,9′ pyrazino[1′,2′:1,5]pyrrolo[2,3-d]pyrimidin]-6′-one di-hydrochloride]
- IC50 [1]: 2400 nM
- IC50 [2]: > 500 nM
- Kp ([3]; C57BL/6, mouse): 17
- Kp at 24 h ([3]; C57BL/6, mouse): > 100
- concentration at 48 h ([3]; C57BL/6, mouse): ~65 ng/mL
- drug in the plasma ([3]; mouse): no drug was detectable
- myeloid progenitor proliferation compared to vehicle [4]: no differences
- findings on oral administration [5]: reduction of bone marrow cellularity and lymphocyte depletion
- EC50 [6]: > 2500 nM
- tumor regression [7]: 38%
- half-life ([8]; dog): 10.5 to 14.7 h
- half-life ([8]; mouse): 2.4 to 5.1 h
- RPB1 CTD (SER2) phosphorylation (CDK9/cyclin T function) [9]: no loss
- half-life ([10]; Human, calculated as part of NCT02821624): 15 h
- half-life ([10]; rat): 3.1 h
- Kd [11]: 0.05 nM
- Kd [12]: 11 nM
- Kd [13]: 5 nM
- Kd [14]: 10 nM
- Kd [15]: 0.18 nM
- Kd [16]: 5.5 nM
- Kd [17]: 4.2 nM
- Kd [18]: 0.69 nM
- Kd [19]: 0.15 nM
- Kd [20]: 6.5 nM
